Key:
Type in all cases: cell-based, rabbit
[1] = tested on: renal proximal tubular cells; assay: Cell density (monolayer protein content) in DCVC-injured RPTC
Method: Rabbit renal proximal tubules were isolated using the iron oxide perfusion method and grown in 35-mm tissue culture dishes or 48-well cell culture clusters under improved conditions as previously described (35, 36). The cell culture medium was a 1:1 mixture of DMEM/Ham's F-12 (without D-glucose, phenol red, or sodium pyruvate) supplemented with 15 mM HEPES buffer, 2.5 mM L-glutamine, 1 μM pyridoxine HCl, 15 mM sodium bicarbonate, and 6 mM lactate. Hydrocortisone (50 nM), selenium (5 ng/ml), human transferrin (5 μg/ml), bovine insulin (10 nM), and L-ascorbic acid-2-phosphate (50 μM or 500 μM) were added to fresh culture medium immediately prior to daily media change. L-Ascorbic acid-2-phosphate (AscP) was used due to the fact that L-ascorbic acid is unstable in culture media. AscP is stable in culture media for ≧7 days at 37° C. and, after intracellular dephosphorylation, has the same effect on cultured cells as L-ascorbic acid (13).
(§1) Confluent monolayers of renal proximal tubular cells (day 6 after seeding) were exposed to 200 μM S-(1,2-dichlorovinyl)-L-cysteine (dissolved in water) for 1.75 hours followed by toxicant removal and addition of fresh culture media. This method produces approximately 50% cell death and loss 24 hours after the exposure. On days 1, 4, and 6 following S-(1,2-dichlorovinyl)-L-cysteine exposure, the ability of the remaining renal proximal tubular cells to regenerate and repair physiological function was monitored as described below. In some experiments, immediately after S-(1,2-dichlorovinyl)-L-cysteine exposure and after daily media change through day 6 after injury, collagen I (0, 5, 15, or 50 μg/ml), collagen IV (0, 5, 15, or 50 μg/ml), laminin (50 μg/ml), or cellular fibronectin (50 μg/ml) was added to the culture media of uninjured and S-(1,2-dichlorovinyl)-L-cysteine-injured renal proximal tubular cells grown in physiological concentrations of AscP. Exogenous collagens I and IV used in this study were triple helical and contained only α1 and α2 chains in conformations similar to those found in the renal basement membrane (3, 25). Laminin was a mixture of biologically active laminin chains found in most epithelial tissues (8, 50) and cellular fibronectin was composed of functional dimers (51).
Measurement of monolayer protein content over time was used to estimate cell density. On days 1, 4, and 6 after sublethal S-(1,2-dichlorovinyl)-L-cysteine injury, renal proximal tubular cell monolayers were washed with PBS and solubilized in Triton buffer (0.05% Triton X-100, 100 mM Tris-Base, 150 mM NaCl, pH 7.5). Samples were sonicated and protein concentrations determined using the method of Lowry (26) or the bicinchoninic acid microassay according to the manufacturer's instructions (Pierce, Rockford, Ill.).

[2] = tested on: collagen-binding integrin subunits α1, α2, and β1; assay: Expression of collagen-binding integrins by flow cytometry; conditions: for expression of CBI subunits α1, α2, or β1 in sublethally injured RPTC: DCVC-injured RPTC; for expression of CBI subunits α1, α2, or β1 in sublethally injured RPTC / collagen-binding integrin α1, α2, and β1 expression in uninjured RPTC: AscP 500 μM or collagen IV 50 μg/ml
Method: CBI expression was measured by flow cytometry of renal proximal tubular cells immunostained with monoclonal antibodies to integrin subunits α1, α2, and β1. Renal proximal tubular cell monolayers were washed 3 times with ice-cold PBS, gently scraped from culture dishes into cell culture media containing 5% BSA (BSA/media), and transferred to microcentrifuge tubes. Renal proximal tubular cells were dissociated by pipeting, incubated on ice with moderate shaking for 20 minutes, centrifuged, and resuspended in 1% BSA/media containing 2 μg/ml of a specific anti-integrin antibody or non-specific IgG on ice with moderate shaking for 1 hour. After 3 washes with 1% BSA/media, renal proximal tubular cells were incubated for 30 minutes in the dark with a goat-anti mouse FITC-conjugated IgG diluted 1:100 in 1% BSA/media, followed by 3 washes with ice-cold PBS. Membrane expression of collagen-binding integrins was determined immediately by flow cytometry using a FACSCalibur four-color cell sorter/analyzer (Beckton Dickinson, San Jose, Calif.) with a blue argon laser for detection of FITC. Specific binding was calculated as total fluorescence minus that in IgG controls.

[3] = tested on: renal proximal tubular cells; assay: Basal oxygen consumption (QO2), a measure of mitochondrial function; conditions: for repair of basal QO2: day 6 after DCVC injury
Method: as §1
On days 1, 4, and 6 after sublethal S-(1,2-dichlorovinyl)L-cysteine injury, renal proximal tubular cells bathed in 37° C. culture medium were gently detached from culture dishes with a rubber policeman and transferred to a 37° C. oxygen consumption (QO2) chamber. Basal renal proximal tubular cells QO2 was measured polarographically using a Clark-type electrode as described previously (36).

[4] = tested on: renal proximal tubular cells; assay: Active Na^+ transport (ouabain-sensitive QO2); conditions: for decrease in active Na^+ transport: day 1 after DCVC injury, in presence of the agent; for active Na+ transport in uninjured RPTC: days 1 or 6
Method: Confluent monolayers of renal proximal tubular cells (day 6 after seeding) were exposed to 200 μM S-(1,2-dichlorovinyl)-L-cysteine (dissolved in water) for 1.75 hours followed by toxicant removal and addition of fresh culture media. This method produces approximately 50% cell death and loss 24 hours after the exposure. In some experiments, exogenous collagen IV (50 μg/ml), collagen I (50 μg/ml), or function-stimulating antibodies to collagen-binding integrin subunits α2 or β1 (5 μg/ml) was added daily to the culture media of S-(1,2-dichlorovinyl)-L-cysteine-injured renal proximal tubular cells cultured in the absence of pharmacological concentrations of L-ascorbic acid-2-phosphate. Function-stimulating antibodies to collagen-binding integrin α1 are not commercially available at this time. On days 1 and 6 following S-(1,2-dichlorovinyl)-L-cysteine exposure, active Na^+ transport or Na^+/K^+-ATPase activity, and collagen-binding integrin expression and/or localization in the remaining sublethally injured renal proximal tubular cells was determined as described below.
Renal proximal tubular cells were gently detached from culture dishes with a rubber policeman and transferred to a 37° C. oxygen consumption (QO2) chamber. QO2 in renal proximal tubular cells was measured polarographically in the absence (basal QO2) or presence of ouabain (100 μM) (ouabain-insensitive QO2) using a Clark-type electrode as described previously (Nowak and Schnellmann, 1995). Active Na^+ transport (ouabain-sensitive QO2) was calculated by subtracting ouabain-insensitive QO2 from basal QO2. Protein concentrations were determined using the bicinchoninic acid microassay according to the manufacturer's instructions (Pierce, Rockford, Ill.).

[5] = day 6, AscP 500 μM or collagen IV 50 μg/ml
[6] = day 1 after DCVC injury, in presence of exogenous protein
[7] = uninjured RPTC, days 1 or 6, exogenous protein

O=C1O[C@H]([C@@H](O)CO)C(O)=C1OP(=O)(O)O [L-ascorbic acid-2-phosphate, L-Ascorbic acid-2-phosphate]
monolayer protein content ([1]; 4 days after DCVC, 50 μM or 500 μM AscP): remained at day 1 levels | monolayer protein content greater than that of DCVC-treated RPTC grown in 50 μM AscP ([1]; 6 days after DCVC, 500 μM AscP): 34% | cell death and loss (decrease in monolayer protein content) ([1]; day 1 after DCVC, RPTC cultured in 500 μM AscP): 55% | monolayer protein content, untreated RPTC, 50 μM vs 500 μM ([1]; uninjured RPTC, any time point): no significant differences | expression of CBI subunits α1, α2, or β1 in sublethally injured RPTC [2]: did not affect | collagen-binding integrin α1, α2, and β1 expression in uninjured RPTC [2]: did not affect | QO2 ([3]; day 4 after DCVC, 50 μM or 500 μM AscP): remained at day 1 levels | QO2 higher than in RPTC grown in 50 μM AscP ([3]; day 6 after DCVC, 500 μM AscP): 49% | QO2 relative to controls ([3]; day 6 after DCVC, 500 μM AscP): equal to that of controls | basal QO2, untreated RPTC, 50 μM vs 500 μM ([3]; uninjured RPTC): equivalent at all time points | decrease in active Na^+ transport [4]: approximately 80% | active Na^+ transport in DCVC-injured RPTC [4, 5]: increase in active Na^+ transport | active Na+ transport in uninjured RPTC [4]: no effect

N[C@@H](CSC(Cl)=CCl)C(=O)O [S-(1,2-dichlorovinyl)-L-cysteine]
cell death and loss ([1]; 200 μM for 1.75 hours, 24 hours after the exposure): approximately 50% | decrease in monolayer protein content compared to control ([1]; day 1 after DCVC (200 μM), RPTC cultured in 50 μM AscP): 56% | expression of CBI subunits α1, α2, and β1 compared to controls ([2]; day 1 after DCVC): unchanged | expression of CBI subunits α1 and β1 compared to controls ([2]; day 6 after DCVC): unchanged | decrease in QO2 ([3]; one day after DCVC (200 μM), both 50 μM and 500 μM AscP): approximately 50% | active Na^+ transport ([4]; day 1 following DCVC injury): marked inhibition | active Na^+ transport ([4]; day 6 after DCVC injury): marked inhibition

collagen IV: Human placenta collagen IV (Sigma); triple helical, containing only α1 and α2 chains
decrease in monolayer cell density [1, 6]: approximately 50% | monolayer protein content in injured RPTC ([1]; day 1 or day 6 after DCVC, 50 μg/ml): no change | cell density as percent of that of uninjured RPTC ([1]; day 6 after DCVC injury, in presence of exogenous protein): approximately 50% | monolayer cell density in untreated RPTC [1, 7]: no effect | expression of CBI subunits α1, α2, or β1 in sublethally injured RPTC [2]: did not affect | collagen-binding integrin α1, α2, and β1 expression in uninjured RPTC [2]: did not affect | decrease in basal QO2 [3, 6]: approximately 50% | repair of basal QO2 ([3]; 50 μg/ml): complete repair | repair of basal QO2 ([3]; 5, 15, 50 μg/ml): recovered basal QO2 | basal QO2 in untreated RPTC [3, 7]: no effect | decrease in active Na^+ transport [4]: approximately 80% | active Na^+ transport in DCVC-injured RPTC [4, 5]: increase in active Na^+ transport | active Na^+ transport in DCVC-injured RPTC ([4]; day 6 after injury, 5, 15, 50 μg/ml): concentration-dependent improvement | active Na+ transport in uninjured RPTC [4]: no effect
